Read-outs that look alike come from different tables or passages of the source.
What was measured:
[1] = molecular target: T1, FMS kinase (Homo sapiens, UniProt P07333); assay: LanthaScreen Eu Kinase Binding Assay (ATP, fluorescent-PolyGT substrate); assay type: biochemical
T1 construct: purchased Invitrogen (Life Technologies)
Outline: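 Kinase (1.25 nM) preincubated 10 min with 3-fold compound dilutions, then ATP 10 μM and fluorescent PolyGT substrate 200 nM added for 1 h in the dark at room temperature. Stopped with Tb-antibody (4 nM) and EDTA 20 mM; TR-FRET at 340 nm excitation, 495/520 nm emission; IC50 from four-parameter fit.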

[2] = tested on: DU4475 breast carcinoma cells; assay: Cancer cell proliferation assay, single agent (cell viability); assay type: cell-based; conditions: Homo sapiens, DU-4475; Table 4; Rb negative; treatment 144 Hr with medium change at 72 Hr; Cell Titer-Glo or resazurin
Outline: (§1)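 Cells seeded day 1, then exposed on day 2 to 7–9 compound concentrations (e.g. 1.1 nM–10 μM); BT-549 for 24 h, MCF-7 and DU4475 for 144 h with medium change at 72 h. Viability by CellTiter-Glo or resazurin; IC50 from variable-slope sigmoidal fit.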

[3] = molecular target: T2, CDK6 (Homo sapiens, UniProt Q00534); assay: In vitro kinase inhibition IC50, luminescence (ADP Glo), retinoblastoma substrate; assay type: biochemical; conditions: read-out: CDK6/D1 IC50
T2 construct: purchased Invitrogen PR8422B
Outline: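 Recombinant CDK6 (5 nM) with retinoblastoma substrate (1 μM) and 25 μM ATP, compound at final 0.1–200 nM, incubated 2 h at room temperature. ADP formed detected by ADP-Glo luminescence. IC50 from four-parameter logistic fit of percent inhibition.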

[4] = molecular target: T3, CDK4 (Homo sapiens, UniProt P11802); assay: as above; assay type: biochemical; conditions: read-out: CDK4/D1 IC50
T3 construct: purchased Invitrogen PR8064A
Outline: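 CDK4 enzyme (5 nM, Invitrogen) was combined with test compound and a mix of retinoblastoma substrate (1 μM) plus ATP (25 μM) in kinase buffer, 30 μL/well in 96-well half area white plates. After 2H at room temperature, ADP Glo reagent stopped the reaction for 45 min, then detection reagent was added and luminescence was read.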

[5] = molecular target: T4, CDK2 (cyclin A) (Homo sapiens, UniProt P24941); assay: Z'-LYTE kinase assay; assay type: biochemical
T4 construct: purchased Invitrogen Life Technologies (assay service)
Experimental: IC50 values of compounds against CDK2 (cyclin A) were determined by Z′-LYTE™ These screening assays were performed at Invitrogen Life Technologies (Grand Island, N.Y.) on a low volume NBS, black 384-well plate (#4514, Corning). 0.1 μL of 100×test compound in 100% DMSO (at specific solutions) was mixed with 2.4 μL of Kinase Buffer (50 mM HEPES pH 7.5, 0.01% BRIJ-35, 10 mM MgCl2, 1 mM EGTA), 5 μL of 2× Kinase (1.22-10.3 ng CDK2/cyclin A)/Peptide (2 μM Ser/Thr 12), and 2.5 μL of 4×ATP solution (31 μM). The plates were shaken for 30 seconds, and incubated for 60 minutes at room temperature. Development Reagent Solution (5 μL of 1:1024 dilution) was added to the plates followed with another 30-second plate shake and the plates were further incubated at room temperature for one hour. The plates were read on fluorescence plate reader with Dual emission at 445 nm and 520 nm.
The following equations were used for Z′-LYTE™ Screening Assay Data Analysis. Percent inhibition (100-% activity) was fitted to the “four-parameter logistic model” in XLfit for determination of IC50 values.

[6] = molecular target: T5, CDK1 (cyclin B) (Homo sapiens, UniProt P06493); assay: Z'-LYTE kinase assay; assay type: biochemical
T5 construct: purchased Invitrogen Life Technologies (assay service)
Experimental: The plates were shaken for 30 seconds, and incubated for 60 minutes at room temperature. […] The plates were read on fluorescence plate reader with Dual emission at 445 nm and 520 nm.
The following equations were used for Z′-LYTE™ Screening Assay Data Analysis.

[7] = tested on: MCF-7 breast adenocarcinoma cells; assay: Cancer cell proliferation assay, single agent (cell viability); assay type: cell-based; conditions: Homo sapiens, MCF7, Table 4; Rb positive; treatment 144 Hr with medium change at 72 Hr; Cell Titer-Glo or resazurin
Outline: as §1

T2 sequence (Q00534 whole entry): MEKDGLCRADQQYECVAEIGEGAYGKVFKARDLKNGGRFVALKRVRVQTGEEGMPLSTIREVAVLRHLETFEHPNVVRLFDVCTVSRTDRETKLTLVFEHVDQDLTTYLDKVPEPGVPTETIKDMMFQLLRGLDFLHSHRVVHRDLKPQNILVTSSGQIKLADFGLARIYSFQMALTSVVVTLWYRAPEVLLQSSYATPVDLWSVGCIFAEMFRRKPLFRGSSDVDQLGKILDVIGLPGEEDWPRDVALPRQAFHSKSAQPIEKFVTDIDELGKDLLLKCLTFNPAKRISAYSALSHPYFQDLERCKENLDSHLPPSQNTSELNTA
T2 sequence (P24385 whole entry partner): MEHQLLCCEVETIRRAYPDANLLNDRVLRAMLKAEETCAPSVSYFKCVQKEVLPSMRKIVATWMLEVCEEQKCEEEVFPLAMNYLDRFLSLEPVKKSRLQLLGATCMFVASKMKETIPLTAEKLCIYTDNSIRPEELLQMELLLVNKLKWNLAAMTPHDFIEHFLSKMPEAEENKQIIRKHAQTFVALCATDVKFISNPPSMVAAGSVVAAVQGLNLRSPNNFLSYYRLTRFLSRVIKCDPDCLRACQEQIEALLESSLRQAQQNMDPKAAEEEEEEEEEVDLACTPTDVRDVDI
T1 sequence (P07333 20-972): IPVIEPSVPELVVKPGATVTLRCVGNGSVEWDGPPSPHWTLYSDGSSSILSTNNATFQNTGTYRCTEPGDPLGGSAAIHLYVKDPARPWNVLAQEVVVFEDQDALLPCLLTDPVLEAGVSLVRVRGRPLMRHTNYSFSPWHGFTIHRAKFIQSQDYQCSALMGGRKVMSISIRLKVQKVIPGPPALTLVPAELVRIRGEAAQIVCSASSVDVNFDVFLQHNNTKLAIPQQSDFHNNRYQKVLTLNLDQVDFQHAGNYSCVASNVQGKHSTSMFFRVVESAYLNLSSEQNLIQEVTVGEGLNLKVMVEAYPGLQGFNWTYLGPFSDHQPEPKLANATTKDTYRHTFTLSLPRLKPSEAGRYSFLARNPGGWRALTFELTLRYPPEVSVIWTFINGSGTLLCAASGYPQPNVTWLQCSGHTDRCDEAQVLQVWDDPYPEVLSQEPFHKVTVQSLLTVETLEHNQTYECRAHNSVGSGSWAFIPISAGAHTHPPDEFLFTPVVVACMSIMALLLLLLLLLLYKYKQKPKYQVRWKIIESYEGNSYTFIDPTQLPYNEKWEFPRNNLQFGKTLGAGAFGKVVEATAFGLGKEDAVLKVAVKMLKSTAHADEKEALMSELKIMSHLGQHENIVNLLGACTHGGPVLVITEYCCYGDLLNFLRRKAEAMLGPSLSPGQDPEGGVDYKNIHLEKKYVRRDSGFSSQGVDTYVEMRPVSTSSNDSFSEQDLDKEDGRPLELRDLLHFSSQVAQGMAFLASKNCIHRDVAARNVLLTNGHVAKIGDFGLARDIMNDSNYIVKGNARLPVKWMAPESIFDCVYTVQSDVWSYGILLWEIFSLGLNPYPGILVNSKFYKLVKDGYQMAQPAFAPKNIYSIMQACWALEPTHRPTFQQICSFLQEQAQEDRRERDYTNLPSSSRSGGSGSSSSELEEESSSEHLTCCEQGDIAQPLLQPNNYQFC
T5 sequence (P06493 whole entry): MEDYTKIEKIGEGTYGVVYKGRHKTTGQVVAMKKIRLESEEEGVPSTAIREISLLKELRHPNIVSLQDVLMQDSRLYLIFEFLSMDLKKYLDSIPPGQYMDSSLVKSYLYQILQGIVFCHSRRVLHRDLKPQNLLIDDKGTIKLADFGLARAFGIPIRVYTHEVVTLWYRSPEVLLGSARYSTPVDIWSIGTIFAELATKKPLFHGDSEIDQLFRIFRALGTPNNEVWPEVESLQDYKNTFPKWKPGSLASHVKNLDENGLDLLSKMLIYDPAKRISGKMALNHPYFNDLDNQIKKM
T5 sequence (P14635 whole entry partner): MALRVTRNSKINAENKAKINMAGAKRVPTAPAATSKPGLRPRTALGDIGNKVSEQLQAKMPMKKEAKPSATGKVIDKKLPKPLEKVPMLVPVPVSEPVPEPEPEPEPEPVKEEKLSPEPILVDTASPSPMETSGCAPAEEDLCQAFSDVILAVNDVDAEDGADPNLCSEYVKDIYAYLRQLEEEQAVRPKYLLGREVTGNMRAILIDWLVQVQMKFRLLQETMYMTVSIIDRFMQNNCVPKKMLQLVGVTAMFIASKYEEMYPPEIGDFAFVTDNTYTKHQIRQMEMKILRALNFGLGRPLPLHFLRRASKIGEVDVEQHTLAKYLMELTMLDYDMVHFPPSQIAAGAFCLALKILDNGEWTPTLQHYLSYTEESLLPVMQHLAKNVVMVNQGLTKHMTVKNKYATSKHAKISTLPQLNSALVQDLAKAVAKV
T3 sequence (P11802 whole entry): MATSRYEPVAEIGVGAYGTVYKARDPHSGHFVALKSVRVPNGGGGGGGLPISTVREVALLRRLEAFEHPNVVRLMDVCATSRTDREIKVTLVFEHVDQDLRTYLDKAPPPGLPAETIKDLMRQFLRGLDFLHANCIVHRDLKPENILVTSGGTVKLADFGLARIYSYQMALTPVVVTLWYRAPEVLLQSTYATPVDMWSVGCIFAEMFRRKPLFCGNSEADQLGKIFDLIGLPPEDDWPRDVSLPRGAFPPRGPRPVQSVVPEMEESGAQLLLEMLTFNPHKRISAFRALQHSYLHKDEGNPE
T3 sequence (P24385 whole entry partner): as the sequence (P24385 whole entry partner) above

Structure (SMILES)	IC50 [1]	IC50 [2]	IC50 [3]	IC50 [4]	IC50 [5]	IC50 ([6]; read-out: CDK1/B IC50)	IC50 [6]	IC50 [7]
CS(=O)(=O)N1CC(Nc2ncc3cc(C#N)c(=O)n(C4CCCC4)c3n2)C1 [Compound No. 372, 8-cyclopentyl-2-((1-(methylsulfonyl)azetidin-3-yl)amino)-7-oxo-7,8-dihydropyrido[2,3-d]pyrimidine-6-carbonitrile]	1.8 µM	> 10 µM	> 0.2 µM	> 0.2 µM	0.705 µM	> 4.17 µM	–	–
COCCS(=O)(=O)N1CCC(Nc2ncc3cc(C#N)c(=O)n(C4CCCC4)c3n2)CC1 [Compound No. 374, 8-cyclopentyl-2-((1-((2-methoxyethyl)sulfonyl)piperidin-4-yl)amino)-7-oxo-7,8-dihydropyrido[2,3-d]pyrimidine-6-carbonitrile]	0.838 µM	0.69 µM	0.006 µM	0.005 µM	0.07 µM	–	0.667 µM	–
N#Cc1cc2cnc(Nc3ccc4c(c3)CCNC4)nc2n(-c2c(F)cccc2F)c1=O [Compound No. 375, 8-(2,6-difluorophenyl)-7-oxo-2-((1,2,3,4-tetrahydroisoquinolin-6-yl)amino)-7,8-dihydropyrido[2,3-d]pyrimidine-6-carbonitrile]	0.013 µM	0.615 µM	0.147 µM	0.132 µM	0.303 µM	1.31 µM	–	–
N#Cc1cc2cnc(Nc3ccc(S(N)(=O)=O)cc3)nc2n(C2CCCC2)c1=O [Compound No. 377, 4-((6-cyano-8-cyclopentyl-7-oxo-7,8-dihydropyrido[2,3-d]pyrimidin-2-yl)amino)benzenesulfonamide]	0.027 µM	0.365 µM	0.011 µM	0.015 µM	0.025 µM	0.42 µM	–	–

The remaining lines, values ahead:

IC50 [1]	IC50 [2]	IC50 [3]	IC50 [4]	IC50 [5]	IC50 ([6]; read-out: CDK1/B IC50)	IC50 [6]	IC50 [7]	Structure (SMILES)
1.44 µM	0.2 µM	0.004 µM	0.004 µM	0.042 µM	–	0.912 µM	–	Cn1ccc(S(=O)(=O)N2CCC(Nc3ncc4cc(C#N)c(=O)n(C5CCCC5)c4n3)CC2)n1 [Compound No. 373, 8-cyclopentyl-2-((1-((1-methyl-1H-pyrazol-3-yl)sulfonyl)piperidin-4-yl)amino)-7-oxo-7,8-dihydropyrido[2,3-d]pyrimidine-6-carbonitrile]
0.402 µM	2.44 µM	0.058 µM	0.159 µM	0.17 µM	–	1.46 µM	–	CS(=O)(=O)N1CCC(Nc2ncc3cc(C#N)c(=O)n(-c4c(F)cccc4F)c3n2)CC1 [Compound No. 376, 8-(2,6-difluorophenyl)-2-((1-(methylsulfonyl)piperidin-4-yl)amino)-7-oxo-7,8-dihydropyrido[2,3-d]pyrimidine-6-carbonitrile]
–	> 10 µM	0.065 µM	0.049 µM	0.096 µM	–	2.62 µM	2.82 µM	CS(=O)(=O)N1CCC(Nc2ncc3cc(C#N)c(=O)n([C@@H]4CCC(F)(F)C4)c3n2)CC1 [Compound No. 385, (R)-8-(3,3-difluorocyclopentyl)-2-(1-(methylsulfonyl)piperidin-4-ylamino)-7-oxo-7,8-dihydropyrido[2,3-d]pyrimidine-6-carbonitrile]
–	0.87 µM	0.004 µM	0.005 µM	0.0095 µM	–	0.118 µM	0.27 µM	CS(=O)(=O)N1CCC(Nc2ncc3cc(C#N)c(=O)n([C@@H]4C[C@H]5CC[C@@H]4C5)c3n2)CC1 [Compound No. 386, 8-((1R,2R,4S)-bicyclo[2.2.1]heptan-2-yl)-2-(1-(methylsulfonyl)piperidin-4-ylamino)-7-oxo-7,8-dihydropyrido[2,3-d]pyrimidine-6-carbonitrile]
–	7.06 µM	0.017 µM	0.02 µM	0.088 µM	–	1.1 µM	0.58 µM	CS(=O)(=O)N1CCC(Nc2ncc3cc(C#N)c(=O)n([C@H]4C[C@@H]5CC[C@H]4C5)c3n2)CC1 [Compound No. 387, 8-((1S,2S,4R)-bicyclo[2.2.1]heptan-2-yl)-2-(1-(methylsulfonyl)piperidin-4-ylamino)-7-oxo-7,8-dihydropyrido[2,3-d]pyrimidine-6-carbonitrile]

Source: US20220273659A1, “HETEROCYCLIC COMPOUNDS AS KINASE INHIBITORS” (NUVATION BIO INC., priority 2019, published 2022)
